The target in the assay is T1, PPARδ (Homo sapiens, UniProt Q03181).
T1 construct: made in house; host or cells: Sf9 insect cells (baculovirus), crude cell lysate
T1 sequence (Q03181 1-441): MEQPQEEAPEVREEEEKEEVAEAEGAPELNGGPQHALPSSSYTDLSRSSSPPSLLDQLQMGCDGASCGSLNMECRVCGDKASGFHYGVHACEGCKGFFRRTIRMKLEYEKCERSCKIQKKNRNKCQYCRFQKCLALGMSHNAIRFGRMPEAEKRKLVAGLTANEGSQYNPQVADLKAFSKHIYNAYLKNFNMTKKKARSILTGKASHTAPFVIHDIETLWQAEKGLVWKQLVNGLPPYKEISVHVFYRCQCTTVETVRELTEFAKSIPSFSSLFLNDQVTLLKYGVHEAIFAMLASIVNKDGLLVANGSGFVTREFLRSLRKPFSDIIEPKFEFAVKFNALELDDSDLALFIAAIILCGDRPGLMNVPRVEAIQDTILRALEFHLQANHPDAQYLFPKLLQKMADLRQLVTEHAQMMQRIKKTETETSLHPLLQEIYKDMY
T1 sequence (P19793 1-462 partner): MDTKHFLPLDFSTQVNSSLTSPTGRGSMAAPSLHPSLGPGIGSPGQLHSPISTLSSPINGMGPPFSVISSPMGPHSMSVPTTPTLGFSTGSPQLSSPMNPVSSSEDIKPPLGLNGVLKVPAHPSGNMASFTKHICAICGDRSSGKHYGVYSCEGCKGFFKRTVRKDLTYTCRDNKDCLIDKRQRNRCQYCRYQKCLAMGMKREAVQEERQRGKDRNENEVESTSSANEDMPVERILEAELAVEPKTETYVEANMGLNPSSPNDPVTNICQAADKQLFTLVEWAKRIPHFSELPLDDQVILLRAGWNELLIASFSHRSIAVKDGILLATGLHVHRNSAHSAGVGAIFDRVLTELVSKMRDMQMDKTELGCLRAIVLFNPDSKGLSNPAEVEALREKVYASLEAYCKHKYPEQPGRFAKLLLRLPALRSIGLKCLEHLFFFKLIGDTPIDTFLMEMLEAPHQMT
Description: PPAR delta binding assay (SPA). The conditions noted are these: tritiated GW2331, n=4, read-out: Ki PPAR δ binding. The source says:
The nucleotide sequences encoding full-length PPARα receptor DNA (National Center for Biotechnology Information (NCBI) Reference Sequence NM_005036.4), PPARδ receptor DNA (NCBI Reference Sequence NM_006238.4), PPARγ receptor DNA (NCBI Reference Sequence NM_015869.4) and Retinoid X Receptor (RXR) α DNA (NCBI Reference Sequence NM_002957.4) are synthesized and inserted into pFastBacHTb (Invitrogen) vector in-framed with the N-terminal HIS tag from the vector. […] The protein concentration is determined by Bradford assay using BSA as the standard.
Binding Affinities of Compounds for the PPAR α, δ, γ Receptors are Assessed Using Scintillation Proximity Assay (SPA) Technology.
Biotinylated oligonucleotide(DR2) ^5′[…]^3′ (SEQ ID NO: 1) is used for binding of receptors to Yttrium silicate streptavidin-coated SPA beads (Perkin Elmer). The PPAR α, δ, γ and Retinoid X Receptor (RXR) α receptors (endogenously expressed as heterodimers) are cell lysates from Baculovirus expression systems in Sf9 cells. […] Non-specific binding is determined in the presence of 10000 nM unlabeled GW2331 (Kliewer, S. A. et al Proc. Natl. Acad. Sci. USA (1997), 94: 4318-4323) for the alpha and delta receptors and 2-methyl-2-[4-[3-[propyl[(5-pyridin-2-ylthiophen-2-yl)sulfonyl]amino]-propyl]phenoxy]propanoic (WO 2004/073606) for the gamma receptor. […]

In patent US9187411B2, “Leukotriene B4 antagonist compound” (Eli Lilly and Company, priority 2012, dated 2015) one finds Ki data, which are given here for one molecule.

In general, Ki refers to the dissociation constant of the complex between target and ligand, obtained from inhibition or displacement. Take `CCCc1c(NC(=O)CC(C)(C)C(=O)[O-])cccc1OCCCOc1cc(O)c(-c2ccc(F)cc2)cc1CC.[Na+]` [Example 2, Sodium 4-[[3-[3-[2-ethyl-4-(4-fluorophenyl)-5-hydroxy-phenoxy]propoxy]-2-propyl-phenyl]amino]-2,2-dimethyl-4-oxo-butanoate]: the Ki was over 8.83 µM.
